Where two headings read alike, the source gives them in different places.
Test system: cancer cell lines
Assay: Cytotoxicity in a wide variety of cancer cell types (TC50, CellTiter-Glo, 72 or 96 hours)
Settings: read-out: TC50
Protocol: Exponentially growing cells were plated in fresh growth media in a 96-well black, flat, clear-bottomed polystyrene microtiter plate (Packard View Plate 6005182). Twenty-four hours later, compounds were added from serial dilutions prepared in DMSO from 50 mM DMSO stock solutions. Each concentration of inhibitor was tested in duplicate at a final DMSO concentration of 0.4%. After 72 or 96 hours incubation, cell viability was quantified by measuring intracellular ATP levels using CellTiter-Glo (Promega). Luminescence data was collected on a TopCount NXT plate reader (PerkinElmer). Experimental values were normalized to solvent controls and plotted versus compound concentration to determine the concentration required for a 50% reduction in cell viability.

`O=C(NCc1cccnc1)Nc1ccc(COc2ccccc2-c2ccccc2)cc1` [Exemplary Compound A] gave a CC50 (A172 cells, glioma, 3 DAY) of 1.1 nM, a CC50 (COLO205 cells, colon, 3 DAY) of 0.5 nM and a CC50 (COLO205 cells, colon, 7 DAY) of 0.3 nM. It also gave a CC50 (DB cells, lymphoma, 3 DAY) of 3.5 nM, a CC50 (DMS-114 cells, SCLC, 3 DAY) of 0.16 nM and a CC50 (DU145 cells, prostate, 3 DAY) of 3.9 nM. For the same compound, the CC50 (DU145 cells, prostate, 7 DAY) was 2.7 nM, the CC50 (DU4475 cells, breast, 3 DAY) was 0.1 nM and the CC50 (DU4475 cells, breast, 7 DAY) was 0.1 nM. The CC50 (HCC827 cells, NSCLC, 3 DAY) was 8 nM, the CC50 (HCC827 cells, NSCLC, 7 DAY) was 1.5 nM and the CC50 (HCT116 cells, colon, 3 DAY) was 0.6 nM. The CC50 (HCT116 cells, colon, 7 DAY) was 0.4 nM, the CC50 (HCT-15 cells, colon, 3 DAY) was 0.7 nM and the CC50 (HCT-15 cells, colon, 7 DAY) was 1 nM. The CC50 (HOP92 cells, NSCLC, 3 DAY) was 17 nM, the CC50 (HOP92 cells, NSCLC, 7 DAY) was 4.3 nM and the CC50 (HT29 cells, colon, 3 DAY) was 1.4 nM. The CC50 (HT29 cells, colon, 7 DAY) was 1.1 nM, the CC50 (HT1080 cells, sarcoma, 3 DAY) was 1 nM and the CC50 (HT1080 cells, sarcoma, 7 DAY) was 0.6 nM. For the same compound, the CC50 (KM12 cells, colon, 3 DAY) was 0.9 nM, the CC50 (KM12 cells, colon, 7 DAY) was 0.4 nM and the CC50 (MDA-MB-231 cells, breast, 3 DAY) was 10 nM. For the same compound, the CC50 (MDA-MB-231 cells, breast, 7 DAY) was 7.5 nM, the CC50 (MIA PaCa-2 cells, pancreatic, 3 DAY) was 1.8 nM and the CC50 (MIA PaCa-2 cells, pancreatic, 7 DAY) was 0.4 nM. The CC50 (NCI-H69 cells, SCLC, 3 DAY) was 1 nM, the CC50 (NCI-H82 cells, SCLC, 3 DAY) was 1.1 nM and the CC50 (NCI-H460 cells, NSCLC, 3 DAY) was 15.4 nM. The CC50 (NCI-H522 cells, NSCLC, 3 DAY) was 1 nM, the CC50 (NCI-H522 cells, NSCLC, 7 DAY) was 0.4 nM and the CC50 (NCI-H929 cells, myeloma, 3 DAY) was 2.5 nM. It also gave a CC50 (NCI-H1650 cells, NSCLC, 3 DAY) of 2.5 nM, a CC50 (NCI-N87 cells, gastric, 3 DAY) of 0.3 nM and a CC50 (NCI-N87 cells, gastric, 7 DAY) of 0.2 nM. For the same compound, the CC50 (OCI-Ly19 cells, lymphoma, 3 DAY) was 1.2 nM, the CC50 (OPM-2 cells, myeloma, 3 DAY) was 1.5 nM and the CC50 (OVCAR3 cells, ovarian, 3 DAY) was 1.1 nM. It also gave a CC50 (OVCAR3 cells, ovarian, 7 DAY) of 0.4 nM, a CC50 (SF-295 cells, glioma, 3 DAY) of 1.5 nM and a CC50 (SU-DHL-4 cells, lymphoma, 3 DAY) of 1.5 nM. For the same compound, the CC50 (SU-DHL-5 cells, lymphoma, 3 DAY) was 0.9 nM and the CC50 (U-87MG cells, glioma, 3 DAY) was 23 nM.

Reference: US20130317027A1, “COMPOUNDS AND THERAPEUTIC USES THEREOF” (Myrexis, Inc, priority 2010, published 2013)
